Data reported in the supplement of paper PMC5844555.

How the values were obtained:
Experiment in all cases: 3' UTR reporter interaction score (median-centred robust z-score of log2 firefly/Renilla activity); higher = less repression of the 3' UTR reporter
Settings in all cases: HEK293T; 48 h
ZEB2 = tested on: ZEB2
Method in brief: (§1)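 HEK293T cells (10,000/well, 96-well plates) were co-transfected using DharmaFECT Duo with 100 ng firefly luc2P reporter carrying the gene's 3' UTR, 20 ng Renilla pRL-TK control and 2.5 pmol miRNA mimic. Dual-luciferase activities were read 48 h post-transfection. The interaction score is the log-transformed firefly/Renilla ratio as a per-plate robust z-score (median, median absolute deviation), median-centred per miRNA and averaged over at least two independent screens; more negative indicates interaction.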

RB1 = tested on: RB1
Method in brief: as §1

PHOX2B = tested on: PHOX2B
Method in brief: as §1

MYB = tested on: MYB
Method in brief: as §1

FBXW7 = tested on: FBXW7
Method in brief: as §1

PHF6 = tested on: PHF6
Method in brief: as §1

MYC = tested on: MYC
Method in brief: as §1

EZH2 = tested on: EZH2
Method in brief: as §1

HRAS = tested on: HRAS
Method in brief: as §1

TP53 = tested on: TP53
Method in brief: as §1

MYT1L = tested on: MYT1L
Method in brief: as §1

BRCA2 = tested on: BRCA2
Method in brief: as §1

NOTCH1 = tested on: NOTCH1
Method in brief: as §1

MYCN = tested on: MYCN
Method in brief: as §1

| Sequence | 3' UTR reporter interaction score (ZEB2) | 3' UTR reporter interaction score (RB1) | 3' UTR reporter interaction score (PHOX2B) | 3' UTR reporter interaction score (MYB) | 3' UTR reporter interaction score (FBXW7) | 3' UTR reporter interaction score (PHF6) | 3' UTR reporter interaction score (MYC) | 3' UTR reporter interaction score (EZH2) | 3' UTR reporter interaction score (HRAS) | 3' UTR reporter interaction score (TP53) | 3' UTR reporter interaction score (MYT1L) | 3' UTR reporter interaction score (BRCA2) | 3' UTR reporter interaction score (NOTCH1) | 3' UTR reporter interaction score (MYCN) |
| --- | --- | --- | --- | --- | --- | --- | --- | --- | --- | --- | --- | --- | --- | --- |
| UCGUGCAUCCCUUUAGAGUGUU | -1.93 | 1.71 | -0.719 | -1.1 | 0.538 | 2.24 | -0.38 | 0.153 | -0.817 | -0.886 | -0.28 | 0.369 | -0.139 | 1.34 |
| UCGUGUCUUGUGUUGCAGCCG | 0.403 | -0.468 | -0.401 | 0.669 | -0.364 | -0.112 | -0.116 | 0.0252 | -0.272 | -0.142 | -0.0239 | -0.341 | -0.0902 | 0.852 |
| UCUACAAAGGGAAGCCCUUUCUG | -0.71 | 0.712 | -0.778 | 0.56 | -0.547 | 0.0225 | -0.127 | 0.229 | -0.0822 | -0.365 | 0.66 | 0.423 | -0.427 | 0.12 |
| UCUACAGUGCACGUGUCU | 0 | 0.634 | 1.13 | 0.507 | -0.208 | -1.18 | -0.224 | -0.132 | -0.193 | 0.119 | 0.894 | -0.808 | -0.268 | 0.872 |
